From ChEMBL document CHEMBL4052803, “Synthesis and anti-tumor evaluation of panaxadiol halogen-derivatives” (Bioorg Med Chem Lett, 2017)

What was measured:
BGC-823 = experiment: Antiproliferative activity against human BGC823 cells after 48 hrs by MTT assay; type: functional, cell-based; settings: BGC-823, 48 h
[1] = Antiproliferative activity against HHDPC cells after 48 hrs by MTT assay; type: cell-based; settings: Homo sapiens
HCT-116 = experiment: Antiproliferative activity against human HCT116 cells after 48 hrs by MTT assay; type: functional, cell-based; settings: HCT-116, 48 h
SW480 = experiment: Antiproliferative activity against human SW480 cells after 48 hrs by MTT assay; type: functional, cell-based; settings: SW480, 48 h
GES1 = experiment: Antiproliferative activity against human GES-1 cells after 48 hrs by MTT assay; type: cell-based; settings: GES1, 48 h
H9c2 = experiment: Antiproliferative activity against rat H9c2 cells after 48 hrs by MTT assay; type: cell-based; settings: H9c2, 48 h

| SMILES | IC50 (BGC-823) | IC50 (HCT-116) | IC50 (SW480) | IC50 [1] | IC50 (GES1) | IC50 (H9c2) |
| --- | --- | --- | --- | --- | --- | --- |
| C/C(=C\CCC(C)(C)O)[C@H]1CC[C@]2(C)[C@@H]1[C@H](OC(=O)CCl)C[C@@H]1[C@@]3(C)CC[C@H](OC(=O)CCl)C(C)(C)[C@@H]3CC[C@]12C | 4.28 µM | 8.33 µM | 5.49 µM | 61.9 µM | 110 µM | 86.2 µM |
| CC1(C)CCC[C@](C)([C@H]2CC[C@]3(C)[C@@H]2[C@H](OC(=O)CBr)C[C@@H]2[C@@]4(C)CC[C@H](OC(=O)CBr)C(C)(C)[C@@H]4CC[C@]23C)O1 | 15.6 µM | 3.86 µM | 15.2 µM | 140 µM | 99.4 µM | 158 µM |
| CC(C)=CC/C=C(\C)[C@H]1CC[C@]2(C)[C@@H]1[C@H](OC(=O)CCl)C[C@@H]1[C@@]3(C)CC[C@H](OC(=O)CCl)C(C)(C)[C@@H]3CC[C@]12C | > 100 µM | 12.6 µM | 13.7 µM | 89.5 µM | 100 µM | 180 µM |
| CC1(C)CCC[C@@](C)([C@H]2CC[C@]3(C)[C@@H]2[C@H](O)C[C@@H]2[C@@]4(C)CC[C@H](OC(=O)CCl)C(C)(C)[C@@H]4CC[C@]23C)O1 | 17.1 µM | 42.3 µM | 15.8 µM | 120 µM | 107 µM | 121 µM |
| C/C(=C\CCC(C)(C)OC(=O)CBr)[C@H]1CC[C@]2(C)C1=CC[C@@H]1[C@@]3(C)CC[C@H](OC(=O)CBr)C(C)(C)[C@@H]3CC[C@]12C | 82.1 µM | 7.14 µM | 31.4 µM | 200 µM | 142 µM | 161 µM |
| CC1(C)CCC[C@@](C)([C@H]2CC[C@]3(C)[C@@H]2[C@H](O)C[C@@H]2[C@@]4(C)CC[C@H](O)C(C)(C)[C@@H]4CC[C@]23C)O1 | 80.1 µM | > 100 µM | 73.4 µM | 141 µM | 116 µM | 214 µM |
| C/C(=C\CCC(C)(C)O)[C@H]1CC[C@]2(C)[C@@H]1[C@H](OC(=O)CBr)C[C@@H]1[C@@]3(C)CC[C@H](O)C(C)(C)[C@@H]3CC[C@]12C | 0.622 µM | 5.34 µM | 0.118 µM | 36.4 µM | 26.1 µM | 48.8 µM |
| CC1(C)CCC[C@](C)([C@H]2CC[C@]3(C)[C@@H]2[C@H](OC(=O)CCl)C[C@@H]2[C@@]4(C)CC[C@H](OC(=O)CCl)C(C)(C)[C@@H]4CC[C@]23C)O1 | > 100 µM | > 100 µM | > 100 µM | 226 µM | 180 µM | > 500 µM |
| C/C(=C\CCC(C)(C)O)[C@H]1CC[C@]2(C)[C@@H]1[C@H](OC(=O)CBr)C[C@@H]1[C@@]3(C)CC[C@H](OC(=O)CBr)C(C)(C)[C@@H]3CC[C@]12C | 1.08 µM | 50.9 µM | 1.22 µM | 42.1 µM | 35.1 µM | 36.6 µM |

Further lines, with some results ahead:

| IC50 (BGC-823) | IC50 (HCT-116) | IC50 (SW480) | SMILES | IC50 [1] | IC50 (GES1) | IC50 (H9c2) |
| --- | --- | --- | --- | --- | --- | --- |
| > 100 µM | 42.3 µM | 30.4 µM | CC(C)(CCC[C@@]1(C)O[C@@H]2C[C@@H]3[C@@]4(C)CC[C@H](OC(=O)CCl)C(C)(C)[C@@H]4CC[C@@]3(C)[C@]3(C)CC[C@H]1[C@@H]23)OC(=O)CCl | 100 µM | 125 µM | 281 µM |
| 14.7 µM |  | 14.2 µM | CC1(C)CCC[C@@](C)([C@H]2CC[C@]3(C)[C@@H]2[C@H](O)C[C@@H]2[C@@]4(C)CC[C@H](OC(=O)CBr)C(C)(C)[C@@H]4CC[C@]23C)O1 | 118 µM | 115 µM | 120 µM |
|  | 3.59 µM | 39.4 µM | CC(C)=CC/C=C(\C)[C@H]1CC[C@]2(C)C1=CC[C@@H]1[C@@]3(C)CC[C@H](OC(=O)CBr)C(C)(C)[C@@H]3CC[C@]12C | 90.6 µM | 77.6 µM | 131 µM |
| 95 µM | 58.1 µM | 18 µM | CC(C)=CC/C=C(\C)[C@H]1CC[C@]2(C)[C@@H]1[C@H](Br)C[C@@H]1[C@@]3(C)CC[C@H](OC(=O)CBr)C(C)(C)[C@@H]3CC[C@]12C | 157 µM | 121 µM | 250 µM |
